According to paper PMC11596392, “Enhanced Antibacterial, Anti-Inflammatory, and Antibiofilm Activities of Tryptophan-Substituted Peptides Derived from Cecropin A-Melittin Hybrid Peptide BP100” (Molecules, 2024):
Where no end group is shown, it is not given here.

Test system: MDRPA (CCARM 2095)
Format: cell-based, multidrug-resistant Pseudomonas aeruginosa
Conditions: for MICA: MIC of peptide alone: checkerboard, 37 °C, 24 h; for FICI: fractional inhibitory concentration index: peptide with ciprofloxacin, [A]/MICA + [B]/MICB
Source text: Multidrug-resistant pathogens pose a significant challenge to both human and animal health. The steady decline in the discovery of new antibiotics has exacerbated the difficulty in developing effective therapies for infection control. Consequently, there is an urgent need for alternative strategies that can combat pathogens without inducing drug resistance. One such strategy involves the combination of different antimicrobial agents. The effects of antimicrobial peptides (AMPs) combined with conventional antibiotics often surpass those of individual drugs. […] The primary advantage of synergistic combinations lies in their ability to lower the concentration of each antimicrobial agent required for effective antibacterial activity. This approach offers several benefits, including reduced production costs, a decreased risk of adverse side effects, diminished toxicity to mammalian cells, and a lower likelihood of drug resistance development. In light of these potential advantages, we investigated the synergistic effects of BP100 and the five selected analogs in combination with ciprofloxacin against multidrug-resistant Pseudomonas aeruginosa (MDRPA) using a checkerboard synergy assay. Ciprofloxacin, an antibiotic belonging to the fluoroquinolone class, is commonly used to treat various bacterial infections, including urinary tract infections and pneumonia. It exerts a bactericidal effect by inhibiting bacterial DNA gyrase, thereby disrupting DNA replication and transcription […]. The fractional inhibitory concentration index (FICI) results for BP100 and its selected analogs, when paired with ciprofloxacin against MDRPA, are detailed in Table 5. […] Such combinations may offer a valuable approach to enhancing the efficacy of existing antibiotics and potentially mitigating the development of antimicrobial resistance.
The synergistic effects of peptide-antibiotic combinations against methicillin-resistant Staphylococcus aureus (MRSA; CCARM 3089) and multidrug-resistant Pseudomonas aeruginosa (MDRPA; CCARM 2095) were evaluated using the fractional inhibitory concentration index (FICI) method. Antibiotics and peptides were subjected to two-fold serial dilutions, mixed in equal ratios, and combined with a bacterial suspension adjusted to approximately 10^6 CFU/mL. The resulting mixtures were distributed into microplate wells and incubated at 37 °C with orbital shaking at 200 rpm for 24 h. Bacterial growth was monitored by measuring the optical density at 600 nm (OD600). The FICI was calculated using the broth microdilution checkerboard method, defined as the sum of the ratios of the minimum inhibitory concentrations (MICs) of each agent in combination to their individual MICs, according to the following equation: FICI = (MIC of antibiotic in combination/MIC of antibiotic alone) + (MIC of peptide in combination/MIC of peptide alone). The interpretation of FICI values was as follows: FICI ≤ 0.5 indicates synergy; 0.5 < FICI ≤ 1.0 indicates an additive effect; 1.0 < FICI ≤ 4.0 indicates indifference; and FICI > 4.0 indicates antagonism.

Row | Compound | MICA: MIC of peptide alone [µg/mL] | FICI: fractional inhibitory concentration index
1 | CC[C@H](C)[C@H](NC(=O)[C@H](CCCCN)NC(=O)[C@H](CCCCN)NC(=O)[C@H](Cc1ccccc1)NC(=O)[C@H](CC(C)C)NC(=O)[C@H](CCCCN)NC(=O)[C@@H](N)CCCCN)C(=O)N[C@@H](CC(C)C)C(=O)N[C@@H](CCCCN)C(=O)N[C@@H](Cc1ccc(O)cc1)C(=O)N[C@@H](CC(C)C)C(N)=O [BP100] | 32 | 0.375
2 | KKWWKKILKYL-NH2 [BP5] | 8 | 0.3125
3 | KKLFKKIWKWL-NH2 [BP11] | 8 | 0.3125
4 | KKLWKKILKWL-NH2 [BP8] | 8 | –
5 | KKWFKKWLKWL-NH2 [BP13] | 8 | 0.2656
6 | KKWFKKILKWL-NH2 [BP6] | 8 | 0.375
